Where two headings read alike, the source gives them in different places.

This assay has as its system α7 integrin (LacZ reporter in α7LacZ+/− myoblasts). Put plainly: qHTS of the LOPAC library and MLSMR (online screen, α7LacZ+/− myoblasts). The conditions noted are these: Mus musculus, Myoblast; for activation at 0.307 µM: read-out: Activity at 0.307 uM [%] **; for activation at 1.53 µM: read-out: Activity at 1.530 uM [%] **; for activation at 7.66 µM: read-out: Activity at 7.660 uM [%] **; for activation at 38.3 µM: read-out: Activity at 38.30uM [%] **; for EC50: read-out: Fit LogAC50 (converted). Background: Quantitative high-throughput screening tests each substance at several concentrations.

[1] abbreviates: 48 h, read-out: Fit Infinite Activity [%].

In the case of `CCOc1ccc(S(=O)(=O)NCCC(=O)NCC(c2cccs2)N2CCOCC2)cc1` (stereo not shown) [Compound 14], the EC50 was 2.24 µM. Further, for the setting “48 h”, the activation at 0.307 µM is -21.6%, the activation at 1.53 µM was determined as 3.54%, the activation at 7.66 µM was determined as 59.1% and the activation at 38.3 µM was found to be 61.7%. Besides, the Emax under setting [1] is 62.8%.
With `CN(C)c1ccnc2sc(C(N)=O)c(N)c12` [Compound 87], under “48 h”, the activation at 0.307 µM was found to be 20.9%, the activation at 1.53 µM worked out at 26.5%, the activation at 7.66 µM amounted to 69.1% and the activation at 38.3 µM was 86.5%. Besides, the Emax under setting [1] was determined as 87.8%. For the same molecule, the Emax (read-out: Max Response [%]) came out at 86.5%.
In the case of `COCc1c(C(=O)OCc2nc(=O)c3sccc3[nH]2)oc2ccccc12` [Compound 6], the EC50 was 1.12 µM. For the setting “48 h”, the activation at 0.307 µM was -39.8%, the activation at 1.53 µM was 19.2%, the activation at 7.66 µM came out at 60.6% and the activation at 38.3 µM was determined as 68.1%. In addition, the Emax under setting [1] is 69.6%.
Turning to `CNC(=O)/C(=C\c1cccc(Oc2ccccc2)c1)NC(=O)c1ccccc1` [Compound 211], under “48 h”, the activation at 0.307 µM stood at 0.23%, the activation at 1.53 µM came to 11.6%, the activation at 7.66 µM amounted to 43% and the activation at 38.3 µM turned out to be 87.9%. Moreover, the Emax under setting [1] is 110%. The Emax (read-out: Max Response [%]) was determined as 87.9%.
Take `CS(=O)(=O)c1ccc(Cl)c(NC(=O)CSc2nncn2-c2ccccc2)c1` [Compound 55]: the EC50 is 12.6 µM. Moreover, where the note is “48 h”, the activation at 0.307 µM was -24.6%, the activation at 1.53 µM is -12.1%, the activation at 7.66 µM was found to be 3.46% and the activation at 38.3 µM was determined as 252%. For the same molecule, the Emax under setting [1] was 253%. Besides, the Emax (read-out: Max Response [%]) amounted to 252%.
As for `COc1ccc(N2CCCC2)c(NC(=O)c2ccc([N+](=O)[O-])o2)c1` [Compound 46], the EC50 is 7.94 µM. Under “48 h”, the activation at 0.307 µM was -29.7%, the activation at 1.53 µM was 4.44%, the activation at 7.66 µM was 77.6% and the activation at 38.3 µM was determined as 156%. The Emax under setting [1] was 196%.
On to `CC(C)(C)N/C=C(\C#N)S(=O)(=O)c1ccc(Br)cc1` [Compound 173], for which, for the setting “48 h”, the activation at 0.307 µM is 10.4%, the activation at 1.53 µM came to 21.1%, the activation at 7.66 µM stood at 42.1% and the activation at 38.3 µM is 72.3%. Further, the Emax under setting [1] turned out to be 93%. In addition, the Emax (read-out: Max Response [%]) turned out to be 72.3%.
For the molecule `Cc1ccc(NP(=O)(Nc2ccc(C)cc2)Nc2ccc(C)cc2)cc1` [Compound 10], the EC50 was 3.16 µM. Under “48 h”, the activation at 0.307 µM amounted to 0%, the activation at 1.53 µM is 11.4%, the activation at 7.66 µM stood at 94.1% and the activation at 38.3 µM stood at 102%. Also, the Emax under setting [1] stood at 102%.
With `CC1(C)CC(O)=C/C(=N\c2ccc(C(=O)O)c(O)c2)C1` [Compound 99], the EC50 is 10 µM. Where the note is “48 h”, the activation at 0.307 µM turned out to be 0.744%, the activation at 1.53 µM stood at 1.73%, the activation at 7.66 µM turned out to be 44.4% and the activation at 38.3 µM is 114%. Besides, the Emax under setting [1] was 121%. Moreover, the Emax (read-out: Max Response [%]) amounted to 114%.
Take `CC(=O)Nc1ccc(NC(=O)[C@@H](NC(=O)c2cccc(C)c2)C(C)C)cc1` [Compound 47]: the EC50 was 5.62 µM. For the same molecule, under “48 h”, the activation at 0.307 µM stood at 17.2%, the activation at 1.53 µM is 32.2%, the activation at 7.66 µM was determined as 97.3% and the activation at 38.3 µM stood at 142%. Also, the Emax under setting [1] worked out at 154%.
Take `O=C(CN1CCOCC1)NCc1cc([N+](=O)[O-])ccc1O` [Compound 166]: for the setting “48 h”, the activation at 0.307 µM stood at 10.3%, the activation at 1.53 µM was 15.6%, the activation at 7.66 µM stood at 41.7% and the activation at 38.3 µM worked out at 87.7%. Further, the Emax under setting [1] is 104%. Besides, the Emax (read-out: Max Response [%]) came out at 87.7%.
Turning to `CC1=C(C#N)C(=O)N(C)C(=O)/C1=C\NNc1ccc(F)cc1` [Compound 203], where the note is “48 h”, the activation at 0.307 µM is -46%, the activation at 1.53 µM was -36.9%, the activation at 7.66 µM came to 8.42% and the activation at 38.3 µM was found to be 51.8%. The Emax under setting [1] came to 59.4%. Also, the Emax (read-out: Max Response [%]) turned out to be 51.8%.
Take `COc1ccccc1CNS(=O)(=O)c1ccc(Cl)s1` [Compound 103]: the EC50 is 6.31 µM. Moreover, for the setting “48 h”, the activation at 0.307 µM is -22%, the activation at 1.53 µM was -16.4%, the activation at 7.66 µM amounted to 50.2% and the activation at 38.3 µM is 91.3%. Further, the Emax under setting [1] is 96.9%. Also, the Emax (read-out: Max Response [%]) was 91.3%.
Take `Cc1ccc(-c2nc(C)sc2CC(=O)OCC(=O)Nc2c(F)cccc2F)cc1` [Compound 210]: for the setting “48 h”, the activation at 0.307 µM worked out at 13.8%, the activation at 1.53 µM came out at 9.43%, the activation at 7.66 µM amounted to 20.3% and the activation at 38.3 µM worked out at 113%. The Emax under setting [1] was 113%. The Emax (read-out: Max Response [%]) was 113%.
For `COc1ccc(S(=O)(=O)N(NC2=NS(=O)(=O)c3ccccc32)C(=O)C(C)C)cc1` [Compound 37], the EC50 was 2.51 µM. Where the note is “48 h”, the activation at 0.307 µM was -1.77%, the activation at 1.53 µM was determined as 15.3%, the activation at 7.66 µM amounted to 70.7% and the activation at 38.3 µM was 72.9%. The Emax under setting [1] worked out at 74.5%.
`CCCCS(=O)(=O)N1CCCC(C(=O)NCCc2ccccc2)C1` (stereo not shown) [Compound 111]: the EC50 is 7.08 µM. Further, under “48 h”, the activation at 0.307 µM turned out to be 4.12%, the activation at 1.53 µM stood at 15.4%, the activation at 7.66 µM came to 54.6% and the activation at 38.3 µM stood at 89.9%. Further, the Emax under setting [1] was found to be 101%. Further, the Emax (read-out: Max Response [%]) was 89.9%.
As to `CCOC(=O)C1CCCN(C(=O)CNS(=O)(=O)c2ccc(Br)s2)C1` (stereo not shown) [Compound 33], the EC50 was 2 µM. Besides, under “48 h”, the activation at 0.307 µM was -41.8%, the activation at 1.53 µM is -14.3%, the activation at 7.66 µM was 17% and the activation at 38.3 µM turned out to be 31.1%. For the same molecule, the Emax under setting [1] turned out to be 33.2%.
With `CCS(=O)(=O)N1CCN(c2ccc([N+](=O)[O-])c(NCC3CCCO3)c2)CC1` (stereo not shown) [Compound 204], the EC50 is 10 µM. Where the note is “48 h”, the activation at 0.307 µM is 0.881%, the activation at 1.53 µM amounted to 0.157%, the activation at 7.66 µM worked out at 20.1% and the activation at 38.3 µM was 70.3%. Also, the Emax under setting [1] was determined as 70.8%. For the same molecule, the Emax (read-out: Max Response [%]) was found to be 70.3%.
Take `CS(=O)(=O)N(Cc1ccc(C(=O)NC2CCCC2)cc1)c1ccccc1` [Compound 63]: the EC50 was 10 µM. Further, where the note is “48 h”, the activation at 0.307 µM was -3.95%, the activation at 1.53 µM is 2.24%, the activation at 7.66 µM is 57.8% and the activation at 38.3 µM is 196%. Also, under setting [1], the Emax turned out to be 199%. For the same molecule, the Emax (read-out: Max Response [%]) was found to be 196%.
Regarding `CC(C)(C)c1ccc(C(=O)OCC(=O)Nc2sc3c(c2C#N)CCC3)cc1` [Compound 85], the EC50 was 5.01 µM. Further, for the setting “48 h”, the activation at 0.307 µM was 3.25%, the activation at 1.53 µM came out at 13.3%, the activation at 7.66 µM came out at 71.6% and the activation at 38.3 µM came out at 101%. In addition, the Emax under setting [1] is 103%. The Emax (read-out: Max Response [%]) was 101%.

(Values after patent US9980943B2, “Methods of treating muscular dystrophy” (BOARD OF REGENTS OF THE NEVADA SYSTEM OF HIGHER EDUCATION, …, priority 2013, dated 2018).)
